Key:
Experiment in all cases: KINOMEscan competition binding
Conditions in all cases: compound 10.0 µM
YES1 (human) = YES1 (human) (UniProt P07947)
[1] = system: PIK3CA (human), P42336 [E542K]
RPS6KA2 KD2 (human) = RPS6KA2 KD2 (human) (UniProt Q15349)
CAMK1D (human) = CAMK1D (human) (UniProt Q8IU85)
GSK3A (human) = GSK3A (human) (UniProt P49840)
MAP4K2 (human) = MAP4K2 (human) (UniProt Q12851)
MUSK (human) = MUSK (human) (UniProt O15146)
RPS6KA1 KD2 (human) = RPS6KA1 KD2 (human) (UniProt Q15418)
TBK1 (human) = TBK1 (human) (UniProt Q9UHD2)
[2] = system: ABL1 (human), P00519 [Y253F]
PIK3C2B (human) = PIK3C2B (human) (UniProt O00750)
Sequence of PIK3C2B (human) (O00750 whole entry, looked up): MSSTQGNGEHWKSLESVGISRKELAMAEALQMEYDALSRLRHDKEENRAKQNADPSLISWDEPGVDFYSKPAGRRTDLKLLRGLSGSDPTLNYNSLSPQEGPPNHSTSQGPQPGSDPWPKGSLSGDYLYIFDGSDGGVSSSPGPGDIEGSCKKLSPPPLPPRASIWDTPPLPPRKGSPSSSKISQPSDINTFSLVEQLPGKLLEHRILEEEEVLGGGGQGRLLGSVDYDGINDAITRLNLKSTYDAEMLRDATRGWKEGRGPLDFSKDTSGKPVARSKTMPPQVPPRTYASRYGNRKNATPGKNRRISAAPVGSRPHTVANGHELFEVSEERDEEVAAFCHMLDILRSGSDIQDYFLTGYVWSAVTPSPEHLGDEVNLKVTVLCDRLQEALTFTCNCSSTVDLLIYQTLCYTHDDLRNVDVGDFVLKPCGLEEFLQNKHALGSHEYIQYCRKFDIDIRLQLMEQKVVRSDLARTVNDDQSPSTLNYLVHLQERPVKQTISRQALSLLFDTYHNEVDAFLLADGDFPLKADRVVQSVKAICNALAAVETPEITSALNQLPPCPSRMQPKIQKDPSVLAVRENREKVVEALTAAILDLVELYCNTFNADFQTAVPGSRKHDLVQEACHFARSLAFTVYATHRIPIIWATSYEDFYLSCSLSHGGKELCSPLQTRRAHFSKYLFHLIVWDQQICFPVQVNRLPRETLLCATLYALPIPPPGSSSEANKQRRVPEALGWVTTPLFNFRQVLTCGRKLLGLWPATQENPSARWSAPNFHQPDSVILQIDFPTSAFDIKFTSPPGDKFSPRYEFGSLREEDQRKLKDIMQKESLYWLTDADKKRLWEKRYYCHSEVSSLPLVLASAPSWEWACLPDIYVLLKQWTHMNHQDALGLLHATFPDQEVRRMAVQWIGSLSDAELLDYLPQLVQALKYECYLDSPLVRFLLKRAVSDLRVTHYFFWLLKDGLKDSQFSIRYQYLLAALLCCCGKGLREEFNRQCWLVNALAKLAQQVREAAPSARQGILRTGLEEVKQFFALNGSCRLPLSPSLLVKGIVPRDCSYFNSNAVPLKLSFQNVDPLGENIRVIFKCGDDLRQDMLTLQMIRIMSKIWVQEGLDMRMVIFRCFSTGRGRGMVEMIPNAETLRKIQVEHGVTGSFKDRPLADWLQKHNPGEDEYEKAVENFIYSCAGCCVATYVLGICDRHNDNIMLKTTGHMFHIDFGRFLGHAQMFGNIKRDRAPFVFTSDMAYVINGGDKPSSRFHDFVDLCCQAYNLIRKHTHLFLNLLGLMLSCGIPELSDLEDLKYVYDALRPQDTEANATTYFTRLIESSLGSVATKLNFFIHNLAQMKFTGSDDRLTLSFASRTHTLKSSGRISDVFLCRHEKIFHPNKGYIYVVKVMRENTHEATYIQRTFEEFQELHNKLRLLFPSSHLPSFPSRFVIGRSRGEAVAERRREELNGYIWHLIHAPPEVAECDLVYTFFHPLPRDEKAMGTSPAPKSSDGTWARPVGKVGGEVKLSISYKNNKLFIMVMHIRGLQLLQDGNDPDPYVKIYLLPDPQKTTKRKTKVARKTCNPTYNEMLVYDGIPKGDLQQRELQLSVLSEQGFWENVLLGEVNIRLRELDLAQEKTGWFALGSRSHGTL

[3] = system: FLT3 (human), P36888 [ITD]
[4] = system: FLT3 (human), P36888 [D835H]
STK24 (human) = STK24 (human) (UniProt Q9Y6E0)
TYRO3 (human) = TYRO3 (human) (UniProt Q06418)
Sequence of TYRO3 (human) (Q06418 whole entry, looked up): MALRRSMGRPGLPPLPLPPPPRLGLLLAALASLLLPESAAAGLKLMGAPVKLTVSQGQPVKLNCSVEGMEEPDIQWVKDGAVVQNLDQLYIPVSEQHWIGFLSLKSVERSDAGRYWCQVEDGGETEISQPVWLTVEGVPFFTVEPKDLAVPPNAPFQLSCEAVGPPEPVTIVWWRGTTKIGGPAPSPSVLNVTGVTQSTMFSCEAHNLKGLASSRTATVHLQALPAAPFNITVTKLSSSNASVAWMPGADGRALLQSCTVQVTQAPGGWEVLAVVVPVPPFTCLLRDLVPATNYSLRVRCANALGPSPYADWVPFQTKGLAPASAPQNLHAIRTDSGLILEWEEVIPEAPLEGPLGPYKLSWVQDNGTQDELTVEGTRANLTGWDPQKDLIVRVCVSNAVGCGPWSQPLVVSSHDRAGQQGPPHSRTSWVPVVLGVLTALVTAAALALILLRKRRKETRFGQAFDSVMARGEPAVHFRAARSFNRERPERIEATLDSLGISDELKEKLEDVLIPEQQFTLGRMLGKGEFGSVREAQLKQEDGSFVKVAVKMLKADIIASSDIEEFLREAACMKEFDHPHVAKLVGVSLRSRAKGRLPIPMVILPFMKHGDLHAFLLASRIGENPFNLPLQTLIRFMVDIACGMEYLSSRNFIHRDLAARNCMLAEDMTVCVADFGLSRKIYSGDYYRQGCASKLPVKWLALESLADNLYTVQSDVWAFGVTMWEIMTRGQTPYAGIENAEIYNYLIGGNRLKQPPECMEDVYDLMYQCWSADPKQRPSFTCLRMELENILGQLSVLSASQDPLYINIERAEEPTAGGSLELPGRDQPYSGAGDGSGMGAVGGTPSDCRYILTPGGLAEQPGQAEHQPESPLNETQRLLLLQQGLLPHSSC

ACVR2B (human) = ACVR2B (human) (UniProt Q13705)
CDKL3 (human) = CDKL3 (human) (UniProt Q8IVW4)
MAPK11 (human) = MAPK11 (human) (UniProt Q15759)
[5] = system: PIK3CA (human), P42336 [C420R]
Sequence of PIK3CA (human), P42336 [C420R] (P42336 whole entry C420R, looked up): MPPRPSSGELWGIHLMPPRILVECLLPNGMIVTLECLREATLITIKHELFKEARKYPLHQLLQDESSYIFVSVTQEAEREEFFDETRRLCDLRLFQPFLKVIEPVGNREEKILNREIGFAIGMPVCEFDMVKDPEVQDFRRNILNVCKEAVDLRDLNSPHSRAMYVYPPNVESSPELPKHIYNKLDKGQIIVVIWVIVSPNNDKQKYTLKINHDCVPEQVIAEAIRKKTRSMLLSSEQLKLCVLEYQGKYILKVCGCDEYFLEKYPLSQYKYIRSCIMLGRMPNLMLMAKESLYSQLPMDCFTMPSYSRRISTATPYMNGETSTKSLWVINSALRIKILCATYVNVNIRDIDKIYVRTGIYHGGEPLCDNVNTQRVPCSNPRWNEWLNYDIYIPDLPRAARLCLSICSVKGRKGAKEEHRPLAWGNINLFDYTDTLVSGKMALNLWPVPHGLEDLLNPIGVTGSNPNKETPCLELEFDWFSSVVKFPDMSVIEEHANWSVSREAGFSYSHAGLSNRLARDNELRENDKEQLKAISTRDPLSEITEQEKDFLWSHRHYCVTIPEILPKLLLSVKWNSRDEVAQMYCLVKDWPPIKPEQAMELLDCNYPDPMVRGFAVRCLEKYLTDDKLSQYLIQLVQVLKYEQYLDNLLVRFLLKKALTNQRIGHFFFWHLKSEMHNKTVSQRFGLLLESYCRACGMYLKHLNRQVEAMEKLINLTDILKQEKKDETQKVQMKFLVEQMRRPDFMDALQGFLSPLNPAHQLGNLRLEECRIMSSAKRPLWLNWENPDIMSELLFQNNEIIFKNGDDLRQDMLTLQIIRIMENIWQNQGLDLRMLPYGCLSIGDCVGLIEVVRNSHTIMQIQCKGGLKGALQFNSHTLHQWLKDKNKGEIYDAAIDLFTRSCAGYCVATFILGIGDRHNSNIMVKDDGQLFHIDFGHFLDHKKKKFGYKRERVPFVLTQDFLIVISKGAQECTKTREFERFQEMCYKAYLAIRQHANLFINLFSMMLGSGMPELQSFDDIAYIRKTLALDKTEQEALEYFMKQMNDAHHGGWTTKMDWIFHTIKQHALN

CSNK2A1 (human) = CSNK2A1 (human) (UniProt P68400)
EPHA2 (human) = EPHA2 (human) (UniProt P29317)
RIOK1 (human) = RIOK1 (human) (UniProt Q9BRS2)
KDR (human) = KDR (human) (UniProt P35968)
STK17B (human) = STK17B (human) (UniProt O94768)
LIMK1 (human) = LIMK1 (human) (UniProt P53667)
Sequence of LIMK1 (human) (P53667 whole entry, looked up): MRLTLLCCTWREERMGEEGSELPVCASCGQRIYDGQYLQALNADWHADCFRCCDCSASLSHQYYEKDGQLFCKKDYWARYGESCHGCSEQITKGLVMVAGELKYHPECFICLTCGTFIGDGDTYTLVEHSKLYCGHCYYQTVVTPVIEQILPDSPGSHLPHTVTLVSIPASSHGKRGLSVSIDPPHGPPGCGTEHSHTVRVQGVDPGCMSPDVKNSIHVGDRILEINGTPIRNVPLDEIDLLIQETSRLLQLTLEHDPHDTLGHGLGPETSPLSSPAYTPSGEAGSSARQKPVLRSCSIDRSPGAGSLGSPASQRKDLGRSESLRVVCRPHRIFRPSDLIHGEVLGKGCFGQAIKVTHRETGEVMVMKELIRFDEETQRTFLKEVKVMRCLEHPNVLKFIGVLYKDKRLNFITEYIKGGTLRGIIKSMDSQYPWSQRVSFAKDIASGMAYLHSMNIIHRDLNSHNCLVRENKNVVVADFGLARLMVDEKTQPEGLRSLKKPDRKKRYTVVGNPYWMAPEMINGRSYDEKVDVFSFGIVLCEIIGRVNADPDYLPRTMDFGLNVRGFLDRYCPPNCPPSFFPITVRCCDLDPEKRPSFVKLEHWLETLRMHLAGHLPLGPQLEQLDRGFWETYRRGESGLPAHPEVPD

DAPK3 (human) = DAPK3 (human) (UniProt O43293)
PRPF4B (human) = PRPF4B (human) (UniProt Q13523)
[6] = system: ABL1 (human), P00519 [M351T]
[7] = system: ABL1 (human), P00519 [F317L]
WEE2 (human) = WEE2 (human) (UniProt P0C1S8)
DCLK3 (human) = DCLK3 (human) (UniProt Q9C098)
PRKCH (human) = PRKCH (human) (UniProt P24723)
SRC (human) = SRC (human) (UniProt P12931)
MAP2K3 (human) = MAP2K3 (human) (UniProt P46734)
Sequence of MAP2K3 (human) (P46734 whole entry, looked up): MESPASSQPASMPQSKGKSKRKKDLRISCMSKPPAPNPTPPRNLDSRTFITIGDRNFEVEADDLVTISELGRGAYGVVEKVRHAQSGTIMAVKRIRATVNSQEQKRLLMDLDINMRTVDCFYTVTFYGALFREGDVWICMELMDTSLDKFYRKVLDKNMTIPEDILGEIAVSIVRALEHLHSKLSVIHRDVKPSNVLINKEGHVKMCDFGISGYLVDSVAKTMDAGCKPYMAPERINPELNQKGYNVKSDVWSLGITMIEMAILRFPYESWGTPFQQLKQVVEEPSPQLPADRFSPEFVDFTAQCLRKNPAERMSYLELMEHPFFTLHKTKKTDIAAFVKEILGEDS

AURKC (human) = AURKC (human) (UniProt Q9UQB9)
Sequence of AURKC (human) (Q9UQB9 whole entry, looked up): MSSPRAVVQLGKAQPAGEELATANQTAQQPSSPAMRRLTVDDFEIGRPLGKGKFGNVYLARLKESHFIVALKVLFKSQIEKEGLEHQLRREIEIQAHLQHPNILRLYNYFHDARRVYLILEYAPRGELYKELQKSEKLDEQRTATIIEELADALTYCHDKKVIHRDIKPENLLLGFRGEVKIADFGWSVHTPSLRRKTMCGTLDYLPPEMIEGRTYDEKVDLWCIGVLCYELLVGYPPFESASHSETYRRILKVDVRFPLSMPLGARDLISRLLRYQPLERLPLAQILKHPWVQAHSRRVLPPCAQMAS

HUNK (human) = HUNK (human) (UniProt P57058)
TESK1 (human) = TESK1 (human) (UniProt Q15569)
FLT3 (human) = FLT3 (human) (UniProt P36888)
RIPK1 (human) = RIPK1 (human) (UniProt Q13546)
[8] = system: MET (human), P08581 [M1250T]
PDGFRA (human) = PDGFRA (human) (UniProt P16234)

Sequence of PIK3CA (human), P42336 [E542K] (P42336 whole entry E542K, looked up): as the sequence (P42336 whole entry C420R, looked up) above, with R420C, E542K counted along it

- kinase still bound, per cent of control (YES1 (human)): 6.4%
- kinase still bound, per cent of control [1]: 100%
- kinase still bound, per cent of control (RPS6KA2 KD2 (human)): 79%
- kinase still bound, per cent of control (CAMK1D (human)): 45%
- kinase still bound, per cent of control (GSK3A (human)): 0%
- kinase still bound, per cent of control (MAP4K2 (human)): 8.5%
- kinase still bound, per cent of control (MUSK (human)): 83%
- kinase still bound, per cent of control (RPS6KA1 KD2 (human)): 47%
- kinase still bound, per cent of control (TBK1 (human)): 32%
- kinase still bound, per cent of control [2]: 4.2%
- kinase still bound, per cent of control (PIK3C2B (human)): 100%
- kinase still bound, per cent of control [3]: 0.15%
- kinase still bound, per cent of control [4]: 1.8%
- kinase still bound, per cent of control (STK24 (human)): 12%
- kinase still bound, per cent of control (TYRO3 (human)): 91%
- kinase still bound, per cent of control (ACVR2B (human)): 20%
- kinase still bound, per cent of control (CDKL3 (human)): 82%
- kinase still bound, per cent of control (MAPK11 (human)): 100%
- kinase still bound, per cent of control [5]: 100%
- kinase still bound, per cent of control (CSNK2A1 (human)): 6.2%
- kinase still bound, per cent of control (EPHA2 (human)): 35%
- kinase still bound, per cent of control (RIOK1 (human)): 5.1%
- kinase still bound, per cent of control (KDR (human)): 0.9%
- kinase still bound, per cent of control (STK17B (human)): 0%
- kinase still bound, per cent of control (LIMK1 (human)): 59%
- kinase still bound, per cent of control (DAPK3 (human)): 2.7%
- kinase still bound, per cent of control (PRPF4B (human)): 13%
- kinase still bound, per cent of control [6]: 2.2%
- kinase still bound, per cent of control [7]: 5.2%
- kinase still bound, per cent of control (WEE2 (human)): 100%
- kinase still bound, per cent of control (DCLK3 (human)): 8%
- kinase still bound, per cent of control (PRKCH (human)): 100%
- kinase still bound, per cent of control (SRC (human)): 0.15%
- kinase still bound, per cent of control (MAP2K3 (human)): 33%
- kinase still bound, per cent of control (AURKC (human)): 0.75%
- kinase still bound, per cent of control (HUNK (human)): 79%
- kinase still bound, per cent of control (TESK1 (human)): 67%
- kinase still bound, per cent of control (FLT3 (human)): 0.05%
- kinase still bound, per cent of control (RIPK1 (human)): 2.4%
- kinase still bound, per cent of control [8]: 87%
- kinase still bound, per cent of control (PDGFRA (human)): 0%
SMILES: O=C1Nc2cc(Br)ccc2/C1=C1/Nc2ccccc2/C1=N\O
